Assay results: patent US4814432A, “Inhibitor of ribonucleotide reductase” (priority 1987, dated 1989)
Where a SMILES comes first, the peptide text is derived from it. Where no end group is shown, it is not given here. [ ]: non-standard residue; d: D form. The star is where a group is joined. Desaminotyrosyl = O=C(CCc1ccc(O)cc1)*; NMeY = CN[C@@H](Cc1ccc(O)cc1)C(=O)O; Aib = CC(C)(N)C(=O)O; Ava = NCCCCC(=O)O

Key:
[1] = biological target: Herpes Simplex Virus Ribonucleotide Reductase (HSV RR) (Human herpesvirus 2, UniProt P89462); assay: biochemical
Sequence of Herpes Simplex Virus Ribonucleotide Reductase (HSV RR) (P89462 whole entry): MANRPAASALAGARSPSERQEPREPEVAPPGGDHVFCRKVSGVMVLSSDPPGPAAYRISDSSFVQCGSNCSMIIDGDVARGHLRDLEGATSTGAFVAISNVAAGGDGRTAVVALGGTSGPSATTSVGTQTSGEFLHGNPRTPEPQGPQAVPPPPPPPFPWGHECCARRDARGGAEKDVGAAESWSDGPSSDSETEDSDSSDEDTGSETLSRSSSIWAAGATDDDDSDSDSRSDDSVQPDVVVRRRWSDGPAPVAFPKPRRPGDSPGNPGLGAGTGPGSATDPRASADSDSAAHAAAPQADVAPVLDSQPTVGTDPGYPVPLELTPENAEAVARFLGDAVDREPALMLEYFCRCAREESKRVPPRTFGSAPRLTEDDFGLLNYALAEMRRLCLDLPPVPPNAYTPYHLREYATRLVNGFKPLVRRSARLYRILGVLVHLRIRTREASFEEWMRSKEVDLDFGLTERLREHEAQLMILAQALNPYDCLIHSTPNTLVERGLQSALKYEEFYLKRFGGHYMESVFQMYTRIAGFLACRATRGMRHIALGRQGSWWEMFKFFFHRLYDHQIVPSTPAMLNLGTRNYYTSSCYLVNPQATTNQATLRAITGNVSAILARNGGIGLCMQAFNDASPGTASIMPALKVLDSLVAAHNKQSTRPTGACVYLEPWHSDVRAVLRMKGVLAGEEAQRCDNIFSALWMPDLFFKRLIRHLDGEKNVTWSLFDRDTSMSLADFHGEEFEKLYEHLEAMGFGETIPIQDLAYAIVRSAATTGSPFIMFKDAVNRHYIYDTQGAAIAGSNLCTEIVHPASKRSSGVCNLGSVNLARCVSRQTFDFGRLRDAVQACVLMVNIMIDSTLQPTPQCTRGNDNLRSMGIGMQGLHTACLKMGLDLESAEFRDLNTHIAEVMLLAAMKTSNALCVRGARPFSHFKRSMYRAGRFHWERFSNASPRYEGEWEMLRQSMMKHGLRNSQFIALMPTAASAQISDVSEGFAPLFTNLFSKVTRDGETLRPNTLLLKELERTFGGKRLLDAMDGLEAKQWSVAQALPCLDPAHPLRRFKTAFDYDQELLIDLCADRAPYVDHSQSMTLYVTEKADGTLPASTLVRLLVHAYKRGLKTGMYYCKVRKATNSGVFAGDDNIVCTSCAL
Method: HSV RR was purified from Baby Hamster Kidney cells that were cultured with HSV2 Strain 186. After infection, cells were harvested and lysed. Crude HSV RR was prepared as described by Huszar et al., J. Virol. 37: 580-588(1981) then subjected to further purification by hydroxyapatite column chromotography.
HSV RR activity was determined as the ability of the enzyme to catalyze the reduction of tritiated cytidine-diphosphate to deoxyribo-cytidine-diphosphate in 30 minutes at 37° C. in the presence of dithiothreitol and MgCl2. Activity of oligopeptide inhibitors was determined by adding them to the reaction mix at the beginning of the incubation. Enzyme was not preincubated with inhibitor.
Oligopeptides were synthesized by either the solid phase method of Merrified, op. cit., or by FMOC chemistry (John Morrow Stewart and Janis Dillaha Young, "Solid Phase Peptide Synthesis," 2nd ed, 1984, Pierce Chemical Co., Rockford, IL.) and purified to >98% homogeneity by reverse phase HPLC and recovered by lyophilization as trifluoroacetic acid salts. These were analyzed for amino acid composition and in some cases sequenced. Dry peptides were resuspended in 100 mM HEPES (pH 8.0) at about 2 mM, relyophilized, and stored in aliquots at -80° C. Immediately prior to use they were rehydrated with distilled H2 O and centrifuged to remove any undissolved peptide. The concentrations of these stock solutions were then determined by measuring A291 nm at basic pH (ε=2.55) for tyrosine-containing peptides and by quantitative amino acid composition for those peptides without tyrosine.

[2] = biological target: ribonucleotide reductase enzyme of herpes simplex virus (Human herpesvirus 1, UniProt P08543); conditions: Dutia et al. and Cohen et al., Nature 321 (1986); cited from earlier work
[3] = biological target: T1, ribonucleotide reductase enzyme of herpes simplex virus (Human herpesvirus 1, UniProt P08543); conditions: Dutia et al. and Cohen et al., Nature 321 (1986); cited from earlier work; remark: listed apart in the source
T1 sequence (P08543 whole entry, looked up): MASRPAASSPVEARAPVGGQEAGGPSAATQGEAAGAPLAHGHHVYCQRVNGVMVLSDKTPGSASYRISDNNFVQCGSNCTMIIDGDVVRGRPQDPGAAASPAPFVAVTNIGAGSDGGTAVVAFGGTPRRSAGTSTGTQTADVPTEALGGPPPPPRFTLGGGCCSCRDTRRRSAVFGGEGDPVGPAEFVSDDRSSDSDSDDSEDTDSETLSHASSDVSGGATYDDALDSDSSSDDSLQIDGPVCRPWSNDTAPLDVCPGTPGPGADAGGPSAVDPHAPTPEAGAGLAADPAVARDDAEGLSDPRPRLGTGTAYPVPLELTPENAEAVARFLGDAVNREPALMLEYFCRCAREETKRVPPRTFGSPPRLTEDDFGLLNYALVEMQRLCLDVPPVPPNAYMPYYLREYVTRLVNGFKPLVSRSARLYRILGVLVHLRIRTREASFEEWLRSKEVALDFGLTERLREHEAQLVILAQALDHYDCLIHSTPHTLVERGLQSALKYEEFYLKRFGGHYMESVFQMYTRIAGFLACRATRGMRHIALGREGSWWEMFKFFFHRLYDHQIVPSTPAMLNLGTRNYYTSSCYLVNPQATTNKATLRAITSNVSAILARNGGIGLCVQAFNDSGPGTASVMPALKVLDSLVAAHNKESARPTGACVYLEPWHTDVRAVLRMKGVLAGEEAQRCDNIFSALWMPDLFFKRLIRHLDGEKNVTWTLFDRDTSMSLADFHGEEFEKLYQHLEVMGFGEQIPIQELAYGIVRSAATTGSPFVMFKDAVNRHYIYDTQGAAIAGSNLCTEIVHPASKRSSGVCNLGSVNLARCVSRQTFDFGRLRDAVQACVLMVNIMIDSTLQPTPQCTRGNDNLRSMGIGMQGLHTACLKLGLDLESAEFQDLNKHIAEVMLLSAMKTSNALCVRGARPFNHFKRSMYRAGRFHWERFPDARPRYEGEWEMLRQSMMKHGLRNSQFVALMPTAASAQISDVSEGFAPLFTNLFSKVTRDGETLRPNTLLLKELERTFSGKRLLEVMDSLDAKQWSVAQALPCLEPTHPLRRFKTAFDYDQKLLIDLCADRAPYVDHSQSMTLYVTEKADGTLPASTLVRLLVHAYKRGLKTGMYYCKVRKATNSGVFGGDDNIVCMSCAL

Compound	IC50 [1]	also measured
YVVNDL [Y V V N D L]	15 µM	–
CN[C@@H](Cc1ccc(O)cc1)C(=O)N[C@H](C(=O)N[C@H](C(=O)N[C@@H](CC(N)=O)C(=O)N[C@@H](CC(=O)O)C(=O)N[C@@H](CC(C)C)C(=O)O)C(C)C)C(C)C [MeNY V V N D L] (H-[NMeY]VVNDL-OH)	12 µM	–
CC(C)C[C@H](NC(=O)[C@H](CC(=O)O)NC(=O)[C@H](CC(N)=O)NC(=O)[C@@H](NC(=O)[C@@H](NC(=O)CCc1ccc(O)cc1)C(C)C)C(C)C)C(=O)O [desNH2Y V V N D L]	24 µM	–
FAGAVVNDL [FA G A V V N D L]	56 µM	–
CC(C)C[C@H](NC(=O)[C@H](CC(=O)O)NC(=O)[C@H](CC(N)=O)NC(=O)[C@@H](NC(=O)[C@@H](NC(=O)[C@H](C)NC(=O)CCc1ccc(O)cc1)C(C)C)C(C)C)C(=O)O [desNH2YA V V N D L] (Desaminotyrosyl-AVVNDL-OH)	160 µM	–
HVVNDL [H V V N D L]	46 µM	–
KKLEEFLKVVNDL [K K L E E FLK V V N D L]	200 µM	–
Tyr Ala Gly Ala Val Val Asn Asp Leu	–	inhibition in vitro of enzyme activity [2]: inhibited
WVVNDL [W V V N D L]	17 µM	–
YAGYVVNDL [Y A G Y V V N D L]	8 µM	–
YAAVVNDL [YAA V V N D L]	112 µM	–
YGAVVNDL [8-desalanine homolog of the nonapeptide, Dutia et al]	–	inhibition in vitro of enzyme activity [3]: inhibited
COc1ccc(C[C@H](N)C(=O)N[C@H](C(=O)N[C@H](C(=O)N[C@@H](CC(N)=O)C(=O)N[C@@H](CC(=O)O)C(=O)N[C@@H](CC(C)C)C(=O)O)C(C)C)C(C)C)cc1 [MeOY V V N D L] (H-Y(Me)VVNDL-OH)	20 µM	–
AVVDDL [A V V D D L]	195 µM	–
Ac-YVVNDL [AcY V V N D L]	18 µM	–
FVVNDL [F V V N D L]	65 µM	–
AAAVVNDL [A AA V V N D L]	77 µM	–
CC(C)C[C@H](NC(=O)[C@H](CC(=O)O)NC(=O)[C@H](CC(N)=O)NC(=O)[C@@H](NC(=O)[C@@H](NC(=O)[C@H](Cc1ccc(O)cc1)NC(=O)CCCCNC(=O)[C@@H](N)Cc1ccc(O)cc1)C(C)C)C(C)C)C(=O)O [YBY V V N D L] (H-Y[Ava]YVVNDL-OH)	20 µM	–
CC(C)C[C@H](NC(=O)[C@H](CC(=O)O)NC(=O)C(C)(C)NC(=O)[C@@H](NC(=O)[C@@H](NC(=O)[C@H](C)NC(=O)CNC(=O)[C@H](C)NC(=O)[C@@H](N)Cc1ccc(O)cc1)C(C)C)C(C)C)C(=O)O [Y A G A V V J D L] (H-YAGAVV[Aib]DL-OH)	200 µM	–
YAPAVVNDL [Y A PA V V N D L]	14 µM	–
